Source: ChEMBL document CHEMBL3352227, “Synthesis, antimycobacterial and antibacterial evaluation of l-[(1R, 2S)-2-fluorocyclopropyl]fluoroquinolone derivatives containing an oxime functional moiety” (Eur J Med Chem, 2014)
Values after ≈ are worked out from the molar mass of the structure shown.

Tests used:
Type in all cases: functional
Klebsiella pneumoniae [1] = assay: Antibacterial activity against extended-spectrum beta-lactamase producin Klebsiella pneumoniae 12-4 after 18 to 24 hrs by standard twofold serial dilution method
[2] = tested on: Staphylococcus epidermidis; assay: Antibacterial activity against methicillin-sensitive Staphylococcus epidermidis 12-3 after 18 to 24 hrs by standard twofold serial dilution method
Klebsiella pneumoniae [3] = assay: Antibacterial activity against extended-spectrum beta-lactamase producin Klebsiella pneumoniae 12-7 after 18 to 24 hrs by standard twofold serial dilution method
Klebsiella pneumoniae [4] = assay: Antibacterial activity against Klebsiella pneumoniae 12-1 after 18 to 24 hrs by standard twofold serial dilution method
Staphylococcus aureus [5] = assay: Antibacterial activity against methicillin-sensitive Staphylococcus aureus 12-5 after 18 to 24 hrs by standard twofold serial dilution method
Staphylococcus aureus [6] = assay: Antibacterial activity against methicillin-sensitive Staphylococcus aureus 12-4 after 18 to 24 hrs by standard twofold serial dilution method
[7] = tested on: Staphylococcus epidermidis; assay: Antibacterial activity against methicillin-resistant Staphylococcus epidermidis 12-1 after 18 to 24 hrs by standard twofold serial dilution method
Pseudomonas aeruginosa [8] = assay: Antibacterial activity against Pseudomonas aeruginosa 12-12 after 18 to 24 hrs by standard twofold serial dilution method
Pseudomonas aeruginosa [9] = assay: Antibacterial activity against Pseudomonas aeruginosa 12-14 after 18 to 24 hrs by standard twofold serial dilution method
Staphylococcus aureus [10] = assay: Antibacterial activity against methicillin-sensitive Staphylococcus aureus 12-1 after 18 to 24 hrs by standard twofold serial dilution method
Streptococcus pneumoniae [11] = assay: Antibacterial activity against Streptococcus pneumoniae 12-18 after 18 to 24 hrs by standard twofold serial dilution method
Staphylococcus aureus [12] = assay: Antibacterial activity against methicillin-sensitive Staphylococcus aureus 12-2 after 18 to 24 hrs by standard twofold serial dilution method
Escherichia coli [13] = assay: Antibacterial activity against Escherichia coli 12-1 after 18 to 24 hrs by standard twofold serial dilution method
[14] = tested on: Staphylococcus epidermidis; assay: Antibacterial activity against methicillin-sensitive Staphylococcus epidermidis 12-1 after 18 to 24 hrs by standard twofold serial dilution method
[15] = tested on: Staphylococcus epidermidis; assay: Antibacterial activity against methicillin-sensitive Staphylococcus epidermidis 12-6 after 18 to 24 hrs by standard twofold serial dilution method
Klebsiella pneumoniae [16] = assay: Antibacterial activity against extended-spectrum beta-lactamase producin Klebsiella pneumoniae 12-14 after 18 to 24 hrs by standard twofold serial dilution method
Staphylococcus aureus [17] = assay: Antibacterial activity against methicillin-resistant Staphylococcus aureus 12-5 after 18 to 24 hrs by standard twofold serial dilution method
Klebsiella pneumoniae [18] = assay: Antibacterial activity against extended-spectrum beta-lactamase producin Klebsiella pneumoniae 12-3 after 18 to 24 hrs by standard twofold serial dilution method
Escherichia coli [19] = assay: Antibacterial activity against extended-spectrum beta-lactamase producing Escherichia coli 12-3 after 18 to 24 hrs by standard twofold serial dilution method
Escherichia coli [20] = assay: Antibacterial activity against extended-spectrum beta-lactamase producing Escherichia coli 12-14 after 18 to 24 hrs by standard twofold serial dilution method
Staphylococcus aureus [21] = assay: Antibacterial activity against methicillin-resistant Staphylococcus aureus 12-4 after 18 to 24 hrs by standard twofold serial dilution method
[22] = tested on: Staphylococcus epidermidis; assay: Antibacterial activity against methicillin-resistant Staphylococcus epidermidis 12-6 after 18 to 24 hrs by standard twofold serial dilution method
[23] = tested on: Staphylococcus epidermidis; assay: Antibacterial activity against methicillin-sensitive Staphylococcus epidermidis 12-8 after 18 to 24 hrs by standard twofold serial dilution method
Staphylococcus aureus [24] = assay: Antibacterial activity against Staphylococcus aureus ATCC 25923 after 18 to 24 hrs by standard twofold serial dilution method
Streptococcus pneumoniae [25] = assay: Antibacterial activity against Streptococcus pneumoniae ATCC 49619 after 18 to 24 hrs by standard twofold serial dilution method
Klebsiella pneumoniae [26] = assay: Antibacterial activity against Klebsiella pneumoniae 12-2 after 18 to 24 hrs by standard twofold serial dilution method
Klebsiella pneumoniae [27] = assay: Antibacterial activity against Klebsiella pneumoniae 12-4 after 18 to 24 hrs by standard twofold serial dilution method
Escherichia coli [28] = assay: Antibacterial activity against extended-spectrum beta-lactamase producing Escherichia coli 12-2 after 18 to 24 hrs by standard twofold serial dilution method
Escherichia coli [29] = assay: Antibacterial activity against extended-spectrum beta-lactamase producing Escherichia coli 12-15 after 18 to 24 hrs by standard twofold serial dilution method
[30] = tested on: Mycobacterium tuberculosis; assay: Antimycobacterial activity against Mycobacterium tuberculosis H37Rv ATCC 27294 by MABA method
Staphylococcus aureus [31] = assay: Antibacterial activity against methicillin-resistant Staphylococcus aureus 12-2 after 18 to 24 hrs by standard twofold serial dilution method
Escherichia coli [32] = assay: Antibacterial activity against Escherichia coli ATCC 25922 after 18 to 24 hrs by standard twofold serial dilution method

Row | Structure (SMILES) | MIC (Klebsiella pneumoniae [1]) [µg/mL] | MIC [2] [µg/mL] | MIC (Klebsiella pneumoniae [3]) [µg/mL] | MIC (Klebsiella pneumoniae [4]) [µg/mL] | MIC (Staphylococcus aureus [5]) [µg/mL] | MIC (Staphylococcus aureus [6]) [µg/mL] | MIC [7] [µg/mL] | MIC (Pseudomonas aeruginosa [8]) [µg/mL] | MIC (Pseudomonas aeruginosa [9]) [µg/mL] | MIC (Staphylococcus aureus [10]) [µg/mL] | MIC (Streptococcus pneumoniae [11]) [µg/mL] | MIC (Staphylococcus aureus [12]) [µg/mL] | MIC (Escherichia coli [13]) [µg/mL] | MIC [14] [µg/mL] | MIC [15] [µg/mL] | MIC (Klebsiella pneumoniae [16]) [µg/mL] | MIC (Staphylococcus aureus [17]) [µg/mL] | MIC (Klebsiella pneumoniae [18]) [µg/mL] | MIC (Escherichia coli [19]) [µg/mL] | MIC (Escherichia coli [20]) [µg/mL] | also measured
1 | CCO/N=C1/CN(c2c(F)cc3c(=O)c(C(=O)O)cn([C@@H]4C[C@@H]4F)c3c2OC)CC1CN (stereo not given in full) | 128 (≈ 284 µM) | 2 (≈ 4.44 µM) | 32 (≈ 71 µM) | 4 (≈ 8.88 µM) | 0.25 (≈ 0.555 µM) | 0.25 (≈ 0.555 µM) | 32 (≈ 71 µM) | 8 (≈ 17.8 µM) | 128 (≈ 284 µM) | 0.25 (≈ 0.555 µM) | 4 (≈ 8.88 µM) | 0.25 (≈ 0.555 µM) | 16 (≈ 35.5 µM) | 0.25 (≈ 0.555 µM) | 0.25 (≈ 0.555 µM) | > 128 | 64 (≈ 142 µM) | > 128 | > 128 | > 128 | MIC (Staphylococcus aureus [21]): 128 µg/mL (≈ 284 µM); MIC [22]: > 128 µg/mL; MIC [23]: 16 µg/mL (≈ 35.5 µM); MIC (Staphylococcus aureus [24]): 0.015 µg/mL (≈ 0.0333 µM); MIC (Streptococcus pneumoniae [25]): 4 µg/mL (≈ 8.88 µM); MIC (Klebsiella pneumoniae [26]): 4 µg/mL (≈ 8.88 µM); MIC (Klebsiella pneumoniae [27]): 4 µg/mL (≈ 8.88 µM); MIC (Escherichia coli [28]): > 128 µg/mL; MIC (Escherichia coli [29]): > 128 µg/mL; MIC [30]: 32 µg/mL (≈ 71 µM); MIC (Staphylococcus aureus [31]): 128 µg/mL (≈ 284 µM); MIC (Escherichia coli [32]): 4 µg/mL (≈ 8.88 µM)
2 | CO/N=C1/CN(c2c(F)cc3c(=O)c(C(=O)O)cn([C@@H]4C[C@@H]4F)c3c2OC)[C@H]1CN | 16 (≈ 37.9 µM) | 0.125 (≈ 0.296 µM) | 2 (≈ 4.73 µM) | 0.5 (≈ 1.18 µM) | 0.125 (≈ 0.296 µM) | 0.06 (≈ 0.142 µM) | 2 (≈ 4.73 µM) | 2 (≈ 4.73 µM) | 16 (≈ 37.9 µM) | 0.125 (≈ 0.296 µM) | 2 (≈ 4.73 µM) | 0.125 (≈ 0.296 µM) | 2 (≈ 4.73 µM) | 0.125 (≈ 0.296 µM) | 0.125 (≈ 0.296 µM) | 64 (≈ 152 µM) | 4 (≈ 9.47 µM) | 64 (≈ 152 µM) | 32 (≈ 75.8 µM) | 128 (≈ 303 µM) | MIC (Staphylococcus aureus [21]): 8 µg/mL (≈ 18.9 µM); MIC [22]: 2 µg/mL (≈ 4.73 µM); MIC [23]: 2 µg/mL (≈ 4.73 µM); MIC (Staphylococcus aureus [24]): < 0.008 µg/mL; MIC (Streptococcus pneumoniae [25]): 0.25 µg/mL (≈ 0.592 µM); MIC (Klebsiella pneumoniae [26]): 0.5 µg/mL (≈ 1.18 µM); MIC (Klebsiella pneumoniae [27]): 0.5 µg/mL (≈ 1.18 µM); MIC (Escherichia coli [28]): 64 µg/mL (≈ 152 µM); MIC (Escherichia coli [29]): 64 µg/mL (≈ 152 µM); MIC [30]: 0.5 µg/mL (≈ 1.18 µM); MIC (Staphylococcus aureus [31]): 8 µg/mL (≈ 18.9 µM); MIC (Escherichia coli [32]): 0.25 µg/mL (≈ 0.592 µM)
3 | CO/N=C1/CCN(c2cc3c(cc2F)c(=O)c(C(=O)O)cn3[C@@H]2C[C@@H]2F)CC1N (stereo not given in full) | 16 (≈ 39.4 µM) | 1 (≈ 2.46 µM) | 4 (≈ 9.84 µM) | 2 (≈ 4.92 µM) | 0.5 (≈ 1.23 µM) | 0.5 (≈ 1.23 µM) | 8 (≈ 19.7 µM) | 4 (≈ 9.84 µM) | 32 (≈ 78.7 µM) | 0.5 (≈ 1.23 µM) | 2 (≈ 4.92 µM) | 0.5 (≈ 1.23 µM) | 2 (≈ 4.92 µM) | 0.5 (≈ 1.23 µM) | 0.5 (≈ 1.23 µM) | > 128 | 64 (≈ 157 µM) | > 128 | 16 (≈ 39.4 µM) | 128 (≈ 315 µM) | MIC (Staphylococcus aureus [21]): 128 µg/mL (≈ 315 µM); MIC [22]: 2 µg/mL (≈ 4.92 µM); MIC [23]: 2 µg/mL (≈ 4.92 µM); MIC (Staphylococcus aureus [24]): 0.5 µg/mL (≈ 1.23 µM); MIC (Streptococcus pneumoniae [25]): 1 µg/mL (≈ 2.46 µM); MIC (Klebsiella pneumoniae [26]): 1 µg/mL (≈ 2.46 µM); MIC (Klebsiella pneumoniae [27]): 1 µg/mL (≈ 2.46 µM); MIC (Escherichia coli [28]): > 128 µg/mL; MIC (Escherichia coli [29]): > 128 µg/mL; MIC [30]: 1 µg/mL (≈ 2.46 µM); MIC (Staphylococcus aureus [31]): 64 µg/mL (≈ 157 µM); MIC (Escherichia coli [32]): 0.25 µg/mL (≈ 0.615 µM)
4 | CO/N=C1/CN(c2cc3c(cc2F)c(=O)c(C(=O)O)cn3[C@@H]2C[C@@H]2F)CC1CN (stereo not given in full) | 16 (≈ 39.4 µM) | 0.06 (≈ 0.148 µM) | 1 (≈ 2.46 µM) | 0.25 (≈ 0.615 µM) | 0.125 (≈ 0.308 µM) | 0.06 (≈ 0.148 µM) | 2 (≈ 4.92 µM) | 2 (≈ 4.92 µM) | 2 (≈ 4.92 µM) | 0.125 (≈ 0.308 µM) | 0.25 (≈ 0.615 µM) | 0.125 (≈ 0.308 µM) | 0.25 (≈ 0.615 µM) | 0.06 (≈ 0.148 µM) | 0.125 (≈ 0.308 µM) | 64 (≈ 157 µM) | 8 (≈ 19.7 µM) | 32 (≈ 78.7 µM) | 32 (≈ 78.7 µM) | 32 (≈ 78.7 µM) | MIC (Staphylococcus aureus [21]): 4 µg/mL (≈ 9.84 µM); MIC [22]: 0.125 µg/mL (≈ 0.308 µM); MIC [23]: 0.25 µg/mL (≈ 0.615 µM); MIC (Staphylococcus aureus [24]): < 0.008 µg/mL; MIC (Streptococcus pneumoniae [25]): 0.03 µg/mL (≈ 0.0738 µM); MIC (Klebsiella pneumoniae [26]): 0.25 µg/mL (≈ 0.615 µM); MIC (Klebsiella pneumoniae [27]): 0.25 µg/mL (≈ 0.615 µM); MIC (Escherichia coli [28]): 128 µg/mL (≈ 315 µM); MIC (Escherichia coli [29]): 128 µg/mL (≈ 315 µM); MIC [30]: 1 µg/mL (≈ 2.46 µM); MIC (Staphylococcus aureus [31]): 16 µg/mL (≈ 39.4 µM); MIC (Escherichia coli [32]): 0.03 µg/mL (≈ 0.0738 µM)
5 | CCO/N=C1/CN(c2cc3c(cc2F)c(=O)c(C(=O)O)cn3[C@@H]2C[C@@H]2F)CC1CN (stereo not given in full) | 8 (≈ 19 µM) | 0.25 (≈ 0.595 µM) | 1 (≈ 2.38 µM) | 0.25 (≈ 0.595 µM) | 0.06 (≈ 0.143 µM) | 0.06 (≈ 0.143 µM) | 1 (≈ 2.38 µM) | 0.25 (≈ 0.595 µM) | 1 (≈ 2.38 µM) | 0.06 (≈ 0.143 µM) | 0.25 (≈ 0.595 µM) | 0.015 (≈ 0.0357 µM) | 0.5 (≈ 1.19 µM) | 0.06 (≈ 0.143 µM) | 0.06 (≈ 0.143 µM) | 32 (≈ 76.1 µM) | 8 (≈ 19 µM) | 16 (≈ 38.1 µM) | 16 (≈ 38.1 µM) | 16 (≈ 38.1 µM) | MIC (Staphylococcus aureus [21]): 8 µg/mL (≈ 19 µM); MIC [22]: 1 µg/mL (≈ 2.38 µM); MIC [23]: 0.5 µg/mL (≈ 1.19 µM); MIC (Staphylococcus aureus [24]): < 0.008 µg/mL; MIC (Streptococcus pneumoniae [25]): 0.03 µg/mL (≈ 0.0714 µM); MIC (Klebsiella pneumoniae [26]): 0.25 µg/mL (≈ 0.595 µM); MIC (Klebsiella pneumoniae [27]): 0.25 µg/mL (≈ 0.595 µM); MIC (Escherichia coli [28]): 32 µg/mL (≈ 76.1 µM); MIC (Escherichia coli [29]): 128 µg/mL (≈ 304 µM); MIC [30]: 0.25 µg/mL (≈ 0.595 µM); MIC (Staphylococcus aureus [31]): 8 µg/mL (≈ 19 µM); MIC (Escherichia coli [32]): 0.06 µg/mL (≈ 0.143 µM)
